Source: patent publication US20250084453A1, “SYSTEMS, COMPOSITIONS AND METHODS FOR IDENTIFYING E3 LIGASE SUBSTRATES BY UBIQUITIN BIOTINYLATION” (The Broad Institute, Inc., priority 2022, published 2025)

System: GSPT1
Assay: Streptavidin pulldown and Western blot of biotinylated ubiquitinated GSPT1 in 293T CRBN-/- CRBN-BirA cells
Format: cell-based, human
Procedure: However, instead of assessing transiently-expressed V5-tagged IKZF1, an endogenous neo-substrate of CRBN, namely, GSPT1, was assessed. […] Following incubation with the components and added agents, the cells were lysed, and streptavidin-coated beads were used to capture from the cell lysate biotinylated, ubiquitinated proteins, e.g., the endogenous GSPT1 substrate. The biotinylated proteins eluted from the beads were subjected to Western blot analyses.
The cells were either treated or untreated with carfilzomib (0.4 μM) for 1 hour and were either treated or untreated with the CRBN-IMiD modifying agent CC-885 (1 μM) for another hour. […] As discussed above in Example 1, the GSPT1 substrate of BirA-tagged CRBN is expressed endogenously in 293T cells.
The preparation of cellular lysate was as described above for Cell Lysis, except that the RIPA buffer was supplemented with COMPLETE™ EDTA-free protease inhibitor cocktail (Roche; 04693159001; 1 tablet per 10 ml of buffer), benzonase (Millipore; E1014; 1 μl per 10 ml of buffer), 1.5 mM MgCl2, 1 mM EGTA, and 10 mM NEM (N-ethylmaleimide). For each sample, 1 ml of 3 mg/ml lysate was rotated overnight at 4° C. with 50 μl of resuspended streptavidin Sepharose beads (CYTIVA™; 17511301), which were pre-washed with RIPA lysis buffer 3 times. For all steps that required pelleting of beads, centrifugation was performed at 400×g for 1 minute. On the next day, streptavidin beads were pelleted, and the supernatant (a.k.a. flow-through) was either saved for analysis by Western blotting or was discarded. Streptavidin beads were then washed two times with 1 ml of 2% SDS wash buffer (2% SDS, 25 mM Tris-HCl, pH 7.5), and three times with 0.5-1 ml of 2M urea wash buffer (2M urea, 50 mM Tris-HCl, pH 8). Between each wash, the beads were rotated at room temperature for at least 5 minutes. During the last wash, the beads and the washing buffer were transferred to a new microfuge tube. […] For mass spectrometry-based analysis, the procedures described in On-bead Digestion below were used.
On the next day, the cells were transfected using pRK5-Avi-HA-ubiquitin or pRK5-A3-HA-ubiquitin in serum-free DMEM.

Cc1ccc(NC(=O)NCc2ccc3c(c2)CN(C2CCC(=O)NC2=O)C3=O)cc1Cl (centres unmarked) [CC-885] was tested. Which “Specific signal, normalized GSPT1/biotin ratios” value (A3-tag compared to Avi-tag, FIG. 6C) did it give?
Its value is “increase in specific signal”.

And the “Sensitivity in detecting CC-885-induced ubiquitination of GSPT1 by CRBN” value (A3-tag, FIG. 6C)?
Its value is 36.39.

What about the “Ubiquitinated GSPT1 captured by streptavidin beads compared with DMSO” value (Avi-HA-Ub, 1 μM, 2 hours, Western blot quantification (FIG. 5C)) of the same compound?
The value was 6-12 fold.

And the “Mono- and poly-ubiquitinated GSPT1 captured by streptavidin beads” value (Avi-HA-Ub, FIG. 5C)?
Its value is “only observed in conditions where CC-885 was present”.

And the “Sensitivity in detecting CC-885-induced ubiquitination of GSPT1 by CRBN” value (Avi-tag, FIG. 6C)?
The value was 15.46.
